According to patent US20110160303A1, “N-ALKYLCARBONYL-AMINO ACID ESTER AND N-ALKYLCARBONYL-AMINO LACTONE COMPOUNDS AND THEIR USE” (Edward Tak WEI, priority 2005, published 2011):
“Also recorded” adds a separate entry of the source.

How the values were obtained:
asthma = test: Study 10: adult-onset asthma, throat irritation and cough; assay type: in vivo, human
Method: A person had adult-onset asthma for 20 years. Triggers for attacks were tobacco smoke, dust, and changes in air temperature. They used Foradil® (formoterol fumarate) and Asmanex® (mometasone fuorate) twice a day to control their asthma, and monitored their pulmonary function with a portable device for measuring peak expiratory flow. They had daily episodes of both productive and non-productive cough. In 5 trials, when they felt throat irritation and a desire to cough, placement of 1 to 3 mg of (R)-2-[((1R,2S,5R)-2-isopropyl-5-methyl-cyclohexanecarbonyl)-amino]-propionic acid ethyl ester) provided rapid relief and was described as soothing and removed “tightness” in the chest. Peak expiratory flow improved from 320 L/min to 370 L/min. In 3 episodes where the test substance was administered in the midst of a productive cough spell, no significant effects were observed and the subject said that the applied compound had been expectorated. The subjective response to the long-acting NACE compound was definitely favourable. The subject remarked that the best time to use the NACE compound was after inhaling the crystalline Foradil® because this inhaled drug irritated their throat. Menthol lozenges were not effective for their airway discomfort because they only had mild anti-irritant actions and the sugar content of the lozenges interfered with their appetite for food.

oral cavity = test: Oral cavity test, substance placed on dorsal surface of the tongue; assay type: in vivo, human
Method: The subject is instructed to close and hold the substance in the mouth for at least 10 seconds and not to swallow. The description of sensations is then recorded at 5 minute intervals.
The compounds of Formula (1) and (2) are white crystalline solids at room temperatures. These compounds were tested as such, or mixed 1:1 with powdered or granulated sugar. The test substances were applied at 1 to 5 mg on the mid-point of the dorsal surface of the tongue using a metal spatula or a plastic applicator. After depositing the test substance on the tongue, the subject was instructed to keep the mouth closed and allow the fluids of the mouth to inter-mix with the test substance and to distribute it to the back of the mouth (oropharynx). The presence and duration of subjective sensations from the mouth was then noted.
In normal subjects, the effects of the D-Ala methyl and ethyl ester compounds falling within Formula (1) ((R)-2-[((1R,2S,5R)-2-isopropyl-5-methyl-cyclohexanecarbonyl)-amino]-propionic acid methyl or ethyl ester)) were examined. Three doses of 1, 2 and 4 mg per application were examined and compared to a similar dose of the L-Ala methyl or ester analog ((S)-2-[((1R,2S,5R)-2-isopropyl-5-methyl-cyclohexanecarbonyl)-amino]-propionic acid methyl or ethyl ester). At the 2 or 4 mg dose, all compounds produced pleasant and robust cooling sensations on the tongue, extending down to the back of throat, and lasted for about 30 minutes and longer. The onset effect was usually within 30 seconds of application.

skin above the upper lip = test: Cooling sensation on facial skin, ointment applied to skin above the upper lip; assay type: in vivo, human; parameters: key to refreshing cooling and absence of skin irritation or eye irritation (“perfect cool”): (*) denotes compounds with refreshing cooling and absence of skin irritation or eye irritation after facial skin or periorbital applications; a “perfect cool.”; conditions: for Duration of Skin Cooling: 40 mM (1% wt/vol) ointment; for Duration of Skin Cooling / Duration of Action On-Off (minutes): On (onset) / Duration of Action On-Off (minutes): duration (offset minus onset) / Duration of Action On-Off (minutes): Off (offset): skin above upper lip; for Duration of Action On-Off (minutes): On (onset): 40 mM (~1% wt/vol) Aquaphor ointment, 40 to 70 mg, time to reach 2 units of coolness; for Duration of Action On-Off (minutes): duration (offset minus onset) / Duration of Action On-Off (minutes): Off (offset): 40 mM Aquaphor ointment; for Duration of Action On-Off (minutes): Off (offset): time when coolness drops below 2 units
Description: A reliable place for topical application is the skin above the upper lip (above the vermilion border of the lips), on the philtrum, lateral to the philtrum until the nasolabial folds, and on the lower nostrils (subnasale). This part of the face is known to be densely innervated with cold receptors, second only to the surfaces of the eyeball and anogenitalia. A second location is on or below the malar eminence (cheekbone). The skin above the cheekbone is thicker than above the lips, and therefore has a higher threshold for activation. At both loci, tingling, cool and cold sensations in the skin may be experienced and rated for time of onset and intensity.
The intensity of the subjective skin sensation is rated as 0, 1, 2 or 3 with: 0 as no change; 1 as slight coolness, cold, or tingling; 2 as clear-cut signal of coolness, cold, or tingling; and 3 as robust cooling or cold. The intervals for recording sensations are 5 to 10 minutes, until two successive zeroes are obtained. The results (shown in FIGS. 1 and 2) are averaged values of 4 to 6 separate trials in the same individual. The data are plotted using SigmaPlot® (Systat Software, Point Richmond Calif.) and a smoothing function with a negative exponential was used for analysis and statistical fit of the results. Confirmatory trials of cooling action of the long-acting NACE compounds were obtained in 2 to 4 individuals but not quantified for some because of the large number of chemicals that were evaluated.
(§1) The onset of drug action is taken as the time to reach 2 units of coolness intensity, and offset of drug action is the time when coolness intensity drops below 2, after previously surpassing 2 units. The duration of cooling action is defined as the offset time minus the onset time. […] The quality of the sensation is noted, for example, as pure refreshing coolness, or if the sensation is accompanied by irritation (stinging or burning). The quality of the sensation is not rated for intensity.
For bioassay on the skin, approximately 30 mg was stirred and dissolved in 3 g of warm liquid Aquaphor® ointment to a yield a 40 mM (˜1% wt/vol) ointment. The exact amount was adjusted so that the molar equivalent was about 35 to 40 mM. After cooling, 40 to 70 mg of the solid ointment was placed on the tip of a plastic stick and applied to the skin above the upper lip, on the philtrum, and lateral to the philtrum, up to the nasolabial folds, of test subjects and the onset and duration of cooling sensations noted.
The intensity of the subjective skin sensation was rated as 0, 1, 2 or 3 with: 0 as no change; 1 as slight coolness, cold, or tingling; 2 as clear signal of coolness, cold, or tingling; and 3 as robust cooling or cold. The intervals for recording sensations were 5 to 10 minutes, until two successive zeroes were obtained. The results (shown in FIGS. 1 and 2) are averaged values of 4 to 6 separate trials in the same individual. The data are plotted using SigmaPlot® (Systat Software, Point Richmond, Calif., USA) and a smoothing function with a negative exponential was used for analysis and statistical fit of the results.
as §1, with “was” for “is”, “was also noted: such” for “is noted, for example,”
Test compounds were singly applied to the skin above the upper lips at a 40 to 70 mg dose of a 1% wt/vol ointment.

periorbital skin = test: Irritancy near the eyes, ointment applied to periorbital skin; assay type: in vivo, human; conditions: Table 1 summary
Description: The ointment is also applied to the periorbital skin (upper and lower eyelids and on skin adjacent to the lateral canthus) for tests of irritancy near the eyes, and the subject is asked if irritation is present or absent. The intensity of the eye sensation is not rated. For tests of irritancy near the eyes, the ointment was applied to the periorbital skin (upper and lower eyelids and on skin adjacent to the lateral canthus), and the subject asked if irritation is present or absent. The intensity of the eye sensation is not rated, but just noted as being present or absent.

tongue [1] = conditions: Watson et al., filter paper on tongue, 6 subjects; cited from earlier work
asthma cough = test: Study 9: asthmatic cough, powder on the tongue; assay type: in vivo, human; conditions: continued use
Description: A person with a documented 31-year history of asthma attacks volunteered to test one of the compounds falling within Formula (1). They were extremely sensitive to agents such as tobacco smoke, dust, pollen, odors, down/woolen materials, house cleansing products, pets, and sudden change of air temperature, and reacted with violent coughing, mucus secretions, wheezing, choking, and shortness of breath. At the time of this trial, they were taking these medications for their condition: theophylline, Allegra®, Advair®, Intal®, and Singulair®. In 5 trials, during a coughing spree, they placed one to two mg of 95%+ pure powder of a D-Ala ethyl ester falling within Formula (1) ((R)-2-[((1R,2S,5R)-2-isopropyl-5-methyl-cyclohexanecarbonyl)-amino]-propionic acid ethyl ester)) on the mid-portion of their tongue. They reported a soothing and cool sensation with a slight taste similar to Eucalyptus oil in their mouth and throat. Coughing stopped after 3 to 5 minutes and breathing was normal. […] In three trials when the compound was applied at night, they slept through the night without being awakened by cough. Their spouse remarked that, in over 30 years of marriage, this was the first time that they had seen an effective medication for their cough. […]

cough = test: Study 8: cough in cigar smokers, powder on the tongue; assay type: in vivo, human
Description: Two males, were inveterate cigar smokers consuming 3 to 5 cigars per day. They both had frequent bouts of dry, non-productive, hacking coughs. At night, there were episodes of insomnia characterized by difficulties in breathing, an oppressive pressure on the chest and throat, and subsequent awakening with sensations of choking. During the day, a frequent and persistent sensation was that of tickling, irritative feelings in the back of the throat that led to coughing.
In 20 trials, 10 trials per subject, two mg of 95%+pure powder of a D-Ala ethyl compound falling within Formula (1) (R)-2-[((1R,2S,5R)-2-isopropyl-5-methyl-cyclohexanecarbonyl)-amino]-propionic acid ethyl ester) was placed on the mid-portion of the tongue of these two subjects. Both subjects reported relief from the desire to cough within 1 minute after application. Sensations of robust coolness in the back of the throat was noted and lasted for about 30 minutes. Applications of similar amounts of powdered sugar were not effective, but the placebo could be clearly distinguished from the active compound because of the absence of cooling sensations.
After application of test substance, the absence of irritation and itching at the back of the throat (cough signals) lasted for about 4 to 5 hours and the individual was observed not to cough for 6 to 8 hours. […] This therapeutic effect occurred when the test substance no longer elicited cooling sensations in the oropharynx.

TRP-M8 = biological target: T1, TRP-M8 (Homo sapiens, UniProt Q7Z2W7); conditions: cited from earlier work
T1 construct: expressed in transfected cells

[2] = Octanol/water partition coefficient; assay type: physicochemical
Method: The octanol/water partition coefficients (given in log P units) for a number of compounds were determined and are shown in Table 7, together with the threshold for cooling on the tongue tested at 40 mM. […] A longer duration of action was not precisely matched with log P values.

tongue [3] = test: Threshold for cooling on the tongue; assay type: in vivo, human; conditions: threshold for cooling on the tongue
Method: Watson et al. (U.S. Pat. No. 4,178,459) tested the properties of N-substituted p-menthane carboxamides on volunteers by putting filter paper (1×1 cm), impregnated with a known amount of compound, onto the dorsal surface of the tongue of the test subject. After 30 seconds, the subject was required to report presence or absence of a cooling effect. […] The average threshold of (−)-menthol for 6 subjects was 0.25 μg, but there was a 100-fold variation in individual sensitivity. As noted above, coolness signals detected from the dorsal surface of the tongue may be confounded by gustatory, olfactory, and other variables, as well as by dilution from saliva. The octanol/water partition coefficients (given in log P units) for a number of compounds were determined and are shown in Table 7, together with the threshold for cooling on the tongue tested at 40 mM. […] A longer duration of action was not precisely matched with log P values.

T1 sequence (Q7Z2W7 whole entry, species assumed): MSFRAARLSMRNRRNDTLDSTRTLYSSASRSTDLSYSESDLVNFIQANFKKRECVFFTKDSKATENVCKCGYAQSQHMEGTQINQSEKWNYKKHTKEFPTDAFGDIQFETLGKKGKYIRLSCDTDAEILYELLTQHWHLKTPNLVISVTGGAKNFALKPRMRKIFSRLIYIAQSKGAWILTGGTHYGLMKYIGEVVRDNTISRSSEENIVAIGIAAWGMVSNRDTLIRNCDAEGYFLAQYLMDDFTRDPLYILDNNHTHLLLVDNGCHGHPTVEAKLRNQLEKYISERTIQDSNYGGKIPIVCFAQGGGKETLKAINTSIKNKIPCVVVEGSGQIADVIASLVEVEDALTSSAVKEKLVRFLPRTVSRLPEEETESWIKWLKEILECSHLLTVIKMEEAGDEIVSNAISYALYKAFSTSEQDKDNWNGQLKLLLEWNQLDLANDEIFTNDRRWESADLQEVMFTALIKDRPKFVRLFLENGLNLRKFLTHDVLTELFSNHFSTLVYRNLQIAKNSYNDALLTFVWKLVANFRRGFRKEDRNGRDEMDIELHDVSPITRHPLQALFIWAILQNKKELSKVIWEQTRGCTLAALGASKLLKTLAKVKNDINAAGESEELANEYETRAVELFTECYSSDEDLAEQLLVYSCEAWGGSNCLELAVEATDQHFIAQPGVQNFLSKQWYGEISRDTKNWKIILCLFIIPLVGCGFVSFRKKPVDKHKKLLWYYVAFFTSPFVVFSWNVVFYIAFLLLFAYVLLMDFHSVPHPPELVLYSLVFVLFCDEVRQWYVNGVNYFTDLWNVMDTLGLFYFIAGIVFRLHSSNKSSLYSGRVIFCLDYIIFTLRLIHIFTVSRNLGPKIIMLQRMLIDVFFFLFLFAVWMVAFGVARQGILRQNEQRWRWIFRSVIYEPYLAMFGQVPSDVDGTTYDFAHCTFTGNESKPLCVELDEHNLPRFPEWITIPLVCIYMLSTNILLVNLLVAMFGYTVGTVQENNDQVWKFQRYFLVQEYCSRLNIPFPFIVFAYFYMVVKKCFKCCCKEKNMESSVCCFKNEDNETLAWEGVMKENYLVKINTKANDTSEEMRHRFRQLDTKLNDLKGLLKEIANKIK

## CCOC(=O)[C@@H](C)NC(=O)[C@@H]1C[C@H](C)CC[C@H]1C(C)C [(R)-2-[((1R,2S,5R)-2-isopropyl-5-methyl-cyclohexanecarbonyl)-amino]-propionic acid ethyl ester]
asthma; 1 to 3 mg, improved from 320 L/min
  Peak expiratory flow: 370 L/min
asthma; asthmatic
  relief of throat irritation, desire to cough and airway discomfort: rapid relief

## CC(C)[C@@H]1CC[C@@H](C)C[C@H]1O [(−)-menthol, 1R-(1α-2β-5α)-5-methyl-2-(1-methylethyl)cyclohexanol, reference compound]
Oral cavity; Table 1 summary
  Cooling on tongue: yes
Skin above the upper lip
  Duration of Skin Cooling: 0.3 h
Skin above the upper lip; Table 1 summary
  Acts for >1 hour at 40 mM: no
  Cooling on skin of face: yes
  “perfect” cooling experience: no
Periorbital skin
  Eye Irritancy: yes
Tongue [1]
  average threshold for cooling on the tongue: 0.25 µg

## CCOC(=O)[C@@H](C)NC(=O)[C@@H]1C[C@H](C)CC[C@H]1C(C)C [D-Ala Et Ester, (R)-2-[((1R,2S,5R)-2-isopropyl-5-methyl-cyclohexanecarbonyl)-amino]-propionic acid ethyl ester]
Oral cavity; dose of 1 to 2 mg, normal subjects
  duration of cooling sensations on the tongue: about 30 minutes
Asthma cough
  recurrence of asthmatic coughing attacks: have not recurred with any severity for one month
Skin above the upper lip
  Duration of Skin Cooling: 2.4 h
  Duration of Action On-Off (minutes): On (onset): 1 min
  Duration of Action On-Off (minutes): duration (offset minus onset): 142 min
  Duration of Action On-Off (minutes): Off (offset): 143 min
Skin above the upper lip; after facial skin or periorbital applications
  refreshing cooling and absence of skin irritation or eye irritation (“perfect cool”): D-Ala Et Ester (*)
cough; after 4 or 6 applications within 2 days, continued smoking
  time the desire to cough was removed: at least 5 days
cough; two mg powder on tongue
  duration of robust coolness in the back of the throat: about 30 minutes
cough; two mg powder on tongue, 20 trials in 2 subjects
  time to relief from the desire to cough: ≤ 1 min

## COc1ccc(NC(=O)C2CC(C)CCC2C(C)C)cc1 (stereo not shown) [WS-12, N-p-methoxyphenyl-p-menthane-carboxamide, reference compound]
Skin above the upper lip
  Duration of Action On-Off (minutes): On (onset): 13 min
  Duration of Action On-Off (minutes): duration (offset minus onset): 25 min
  Duration of Action On-Off (minutes): Off (offset): 38 min
TRP-M8
  potency at TRP-M8: more potent at TRP-M8 than WS-5; also recorded: potent
[2]
  logP: 5.3
Tongue [3]
  Threshold tongue: 0.2 µg
